Reference: PMC11859423, “Fluorescent Probes to Image the KCa3.1 Channel in Tumor Cells” (Pharmaceutics, 2025)
Values joined by “and” are separate entries in the source; they are usually repeats but may differ in a detail not shown here. Equal values may be shown once.

What was measured:
[1] = biological target: T1, KCa3.1 channel in A549-3R cells (Homo sapiens, UniProt O15554); assay: Co-staining of permeabilized A549-3R cells with fluorescent probe and antibodies (Protocols 7a and 7b); format: cell-based; settings: for Average Green (in % ± SD): green = channels stained with 10b; for Average Red (in % ± SD): red = channels stained with antibodies
T1 construct: the non-small cell lung cancer cell line A549-3R with a high expression of the KCa3.1 channel was employed; endogenous in cells; host or cells: A549-3R cells
Procedure: The cells were stained with antibodies as described in Protocol 6. Afterwards, the cells were stained with 300 µL of staining solution and the mixture was incubated for 10 min at 4 °C in a dark chamber. Subsequently, the cells were washed five times with 1 mL of PBS and were used for fluorescence microscopy.
The cells were treated as described in Protocol 5 to permeabilize the cells. Subsequently, staining solution was added and the cells were incubated for 10 min as described in Protocol 1. After washing the cells three times with PBS, Protocol 6 for the antibody staining was performed. Subsequently, the cells were used for fluorescence microscopy.
For the co-staining experiments, the permeabilized A549-3R cells were first incubated with the antibodies and subsequently stained with bodipy-labeled senicapoc derivative 10b for 10 min (protocol 7a). The images were analyzed with the FITC filter set to observe the fluorescence generated by 10b and the TRITC filter set to observe the fluorescence emitted by the secondary antibody (Figure 5). In a further experiment, the order of staining modalities was reversed, i.e., the cells were first labeled with fluorescent probe 10b for 10 min and second with the antibodies (Figure 6).
The obtained green, red and yellow dots were analyzed as described in the cell staining experiments above. The density of antibody-stained KCa3.1 channels (red dots) was higher than the density of KCa3.1 channels stained with bodipy-labeled senicapoc derivative 10b independent of the order of staining modality (Table 3). […] A successful co-staining was only counted when the distance between the signal peak maxima was ≤1 pixel.

[2] = biological target: T1, KCa3.1 channel in A549-3R cells; assay: Staining of living A549-3R cells (Protocol 2); format: cell-based
Procedure: The cells were used without fixation. After incubation of the cells for 24 h (Section 2.10.1), the medium was removed, and the cells were washed three times with 1 mL of PBS. […]
(§1) An Axiovert 200 inverted microscope (Carl Zeiss AG, Jena, Germany) with a ×100 oil immersion objective and a digital camera (SPOT RT SE from Diagnostic Instruments Inc., Livingston, UK) were used. The camera was controlled by MetaVue software (version 6.3r6, Visitron, Germany). Two different filter sets were employed, the FITC filter set (Carl Zeiss Filter Set 10 bandwidth excitation filter 450–490, color splitter 510, bandpass filter 515–565) and the TRITC filter set (Carl Zeiss Filter Set 15, bandpass excitation filter 546/12, dichroic mirror 580, emission filter Long Pass 590).
(§2) Using the free imaging software ImageJ (1.53f51, NIH, USA), squares with an edge length of 50 × 50 pixels, corresponding to an area of 9 µm^2, were randomly placed in a cell and signals with Full Width at Half Maximum (FWHM) of ≤5 pixels (~300 nm) were counted as a KCa3.1 channel. For the evaluation, 7 squares were analyzed.
In the next experiment, living A549-3R cells were stained with 10b.

[3] = logP by HPLC retention time correlation; format: physicochemical; settings: standardized reversed phase HPLC system
Procedure: The logP values were recorded using HPLC analysis. Thus, the retention time of the test compound in a standardized reversed phase HPLC system is correlated with the retention times of compounds with known logP values.
In addition to the logD7.4 values, the logP values of the fluorescent probes were recorded by HPLC, i.e., after calibration of the method, the retention times were correlated with the logP values or the compounds [33]. […] Fluorescein-labeled ligands 21a and 21b are considerably more polar than the corresponding bodipy-labeled senicapoc derivatives.

[4] = biological target: T1, KCa3.1 channel in A549-3R cells; assay: Staining of fixed A549-3R tumor cells (Protocol 1), fluorescence microscopy; format: cell-based; settings: 10 min, 4 °C
Procedure: For the fixation of the cells, the DMEM medium was removed from the glass bottom dish after incubation for 24 h, and the cells were washed with 1 mL of PBS. Subsequently, 1 mL of 4% paraformaldehyde in PBS solution was added to the glass bottom dish and the mixture was incubated for 30 min at room temperature. Thereafter, the cells were washed five times with 1 mL of PBS and used for the cell staining experiments.
After fixation of the cells (Section 2.10.2), 300 µL of the 10 µM staining solution was added to the glass bottom dish. The cells were incubated for 10 min at 4 °C in a dark chamber. After incubation, the cells were washed five times with 1 mL of PBS and used subsequently for fluorescence microscopy.
as §1, §2
For the staining experiments, the non-small cell lung cancer cell line A549-3R with a high expression of the KCa3.1 channel was employed. An optimized staining protocol (Protocol 1) described previously was followed to analyze the imaging properties of the fluorescent probes. In brief, the 10 µM solution of the senicapoc–dye conjugate in PBS was added to adherent A549-3R cells in a glass bottom dish and the set-up was incubated for 10 min at 4 °C in a dark chamber. After careful washing, the cells were analyzed with a fluorescence microscope.
The images were analyzed with respect to size and density of the fluorescent dots. For this purpose, a square with a size of 50 × 50 pixels was randomly placed on the cell images using ImageJ. The intensities of the signals within the square were analyzed to calculate the Full Width at Half Maximum (FWHM) for each selected dot, which represents a measure for the signal size. For the accurate representation of a single KCa3.1 channel, the FWHM should be in the range of five pixels. Signals with a FWHM of ≤5 pixels within the square were regarded as labeled KCa3.1 channels and the number of identified channels was used to determine the density of the ion channels on the cells (Figure S8, Supplementary Materials).

[5] = living A549-3R cells, Protocol 2

- Average Green (in % ± SD) ([1]; Protocol 7a (antibody first)): 41.5% and 41.5 ± 4.75%
- Average Red (in % ± SD) ([1]; Protocol 7a (antibody first)): 58.5 ± 9.60%
- Average Green (in % ± SD) ([1]; Protocol 7b (10b first)): 41.4 ± 5.56%
- Average Red (in % ± SD) ([1]; Protocol 7b (10b first)): 58.6 ± 8.52%
- co-staining of a single KCa3.1 channel with both imaging tools (yellow dots) ([1]; distance between signal peak maxima ≤1 pixel counted as co-staining): hardly observed
- staining pattern of living A549-3R cells ([2]; Protocol 2, 10 µM, 10 min, 4 °C): distinct punctate staining pattern
- FWHM of fluorescent dots [2, 5]: 4.89 ± 0.50 pixels
- density of labeled KCa3.1 channels [2, 5]: 1.11 ± 0.11 KCa3.1 channels per µm^2
- chromatographic logP [3]: 5.8
- FWHM of fluorescent dots ([4]; fixed A549-3R cells, 10 µM): 5.27 ± 0.22 pixels and 5.27 pixels
Compound: CCC1=C(C)C2=C(c3ccc(OCCOCCn4cc(COc5ccc(C(C(N)=O)(c6ccccc6)c6ccc(F)cc6)cc5)nn4)cc3)c3c(C)c(CC)c(C)n3[B-](F)(OC)[N+]2=C1C (stereo not drawn) [10b, 2-{4-[(1-{2-[4-(2,6-Diethyl-4-fluoro-4-methoxy-1,3,5,7-tetramethyl-4-bora-3a,4a-diaza-s-indacen-8-yl)phenoxy]ethoxyethyl}-1,2,3-triazol-4-yl)methoxy]phenyl}-2-(4-flluorophenyl)-2-phenylacetamide]
- staining pattern of fixed A549-3R tumor cells ([4]; 10 µM in PBS, Protocol 1): expected punctate staining pattern of the membrane
- density of labeled KCa3.1 channels ([4]; fixed A549-3R cells, 10 µM): 1.22 ± 0.26 KCa3.1 channels per µm^2 and 1.22 KCa3.1 channels per µm^2
